# Patent US9896441B2 (Lycera Corporation, priority 2014, dated 2018)
# Key:
# Gal4-RORγ-LBD = molecular target: T1, Gal4-RORγ-LBD (Homo sapiens, UniProt P51449); test: Gal4-RORγ Luciferase Reporter Assay in HEK-293T Cells; type: cell-based; settings: HEK-293 cells; for Gal4-RORγ Assay Max Response: maximum response
# T1 construct: expressed in transfected cells
# T1 sequence (P51449 269-508 limits assumed): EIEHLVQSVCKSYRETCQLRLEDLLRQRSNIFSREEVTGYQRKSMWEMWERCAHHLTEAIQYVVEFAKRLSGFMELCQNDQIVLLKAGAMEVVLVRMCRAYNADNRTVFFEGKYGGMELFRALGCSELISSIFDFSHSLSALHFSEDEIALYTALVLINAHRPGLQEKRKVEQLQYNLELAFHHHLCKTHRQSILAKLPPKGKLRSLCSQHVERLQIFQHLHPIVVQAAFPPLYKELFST
# Method in brief: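 HEK-293 cells were co-transfected with Gal4-RORγ-LBD and a Gal4-luciferase reporter, then exposed overnight at 37 °C to compounds with […] ursolic acid present (0.2% DMSO). Luminescence was read with One-Glo after 10 min at RT, untreated signal was set as 100, and Max Response was taken as the upper plateau of a 4-parameter logistic fit.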
# RORγ-LBD = molecular target: T2, RORγ-LBD (Homo sapiens, UniProt P51449); test: RORγ-Ligand Binding Domain (LBD) TR-FRET Assay; type: biochemical; settings: for TR-FRET Assay Max Response: maximum response;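 for TR-FRET Assay Max Response: 665/615 nm signal ratio set to 100 without ursolic acid or test compound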
# T2 construct: made in house; host or cells: SF9 cells (baculovirus); used as diluted lysate
# T2 sequence (P51449 269-508 limits assumed): T1 sequence (P51449 269-508 limits assumed)
# Method in brief: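 This TR-FRET coactivator assay pairs baculovirus-expressed His-RORγ-LBD (~3 nM final) with biotin-SRC1 LXXLL peptide at 200 nM final in pH 7.0 Tris/KCl/EDTA/DTT/BSA buffer.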
# [1] = luciferase reporter, in presence of ursolic acid
Structure (SMILES),EC50 (Gal4-RORγ-LBD; [1]) [nM],Gal4-RORγ Assay Max Response (Gal4-RORγ-LBD; [1]),EC50 (RORγ-LBD; RORγ-LBD TR-FRET assay) [nM],TR-FRET Assay Max Response (RORγ-LBD; RORγ-LBD TR-FRET assay),"EC50 (Gal4-RORγ-LBD; ursolic acid present, luciferase readout) [nM]","EC50 (RORγ-LBD; with 2 μM ursolic acid (RORγ antagonist), highest test concentration 10 μM) [nM]"
"C/C(=C\c1ccc2c(c1)N(S(=O)(=O)c1cccc(C(F)(F)F)c1)C[C@H](CCC(=O)NCC(=O)O)O2)c1c(F)cccc1Cl [Example 129E, (S,E)-(3-(6-(2-(2-chloro-6-fluorophenyl)prop-1-en-1-yl)-4-((3-(trifluoro-methyl)phenyl)sulfonyl)-3,4-dihydro-2H-benzo[b][1,4]oxazin-2-yl)propanoyl)glycine]",500 to 5000,** (a value in the range of greater than 90 to 150),< 500,**** (a value greater than 200),,
"C/C(=C\c1ccc2c(c1)N(S(=O)(=O)c1cccc(C(F)(F)F)c1)C[C@H](CCC(=O)N(C)CC(=O)O)O2)c1c(F)cccc1Cl [Example 129F, (S,E)-N-(3-(6-(2-(2-chloro-6-fluorophenyl)-prop-1-en-1-yl)-4-((3-(trifluoromethyl)phenyl)sulfonyl)-3,4-dihydro-2H-benzo[b][1,4]oxazin-2-yl)propanoyl)-N-methylglycine]",< 500,*** (a value in the range of greater than 150 to 200),< 500,*** (a value in the range of greater than 150 to 200),,
"O=C(O)C1CN(C(=O)CC[C@H]2CN(S(=O)(=O)c3cccc(C(F)(F)F)c3)c3cc(/C=C/c4c(Cl)cccc4C(F)(F)F)ccc3O2)C1 [Example 129G, (S,E)-1-(3-(6-(2-chloro-6-(trifluoromethyl)styryl)-4-((3-(trifluoromethyl)-phenyl)sulfonyl)-3,4-dihydro-2H-benzo[b][1,4]oxazin-2-yl)propanoyl)azetidine-3-carboxylic acid]",< 500,** (a value in the range of greater than 90 to 150),< 500,**** (a value greater than 200),,
"C/C(=C\c1ccc2c(c1)N(S(=O)(=O)c1cccc(C(F)(F)F)c1)C[C@H](CCC(=O)N1CCC[C@@H]1C(=O)O)O2)c1c(F)cccc1Cl [Example 129H, (3-((S)-6-((E)-2-(2-chloro-6-fluorophenyl)prop-1-en-1-yl)-4-((3-(trifluoromethyl)phenyl)sulfonyl)-3,4-dihydro-2H-benzo[b][1,4]oxazin-2-yl)propanoyl)-D-proline]",< 500,*** (a value in the range of greater than 150 to 200),< 500,*** (a value in the range of greater than 150 to 200),,
"C/C(=C\c1ccc2c(c1)N(S(=O)(=O)c1cccc(C(F)(F)F)c1)C[C@H](CCC(=O)N1CC(C)(C(=O)O)C1)O2)c1c(F)cccc1Cl [Example 129I, (S,E)-1-(3-(6-(2-(2-chloro-6-fluorophenyl)-prop-1-en-1-yl)-4-((3-(trifluoromethyl)phenyl)sulfonyl)-3,4-dihydro-2H-benzo[b][1,4]oxazin-2-yl)propanoyl)-3-methylazetidine-3-carboxylic acid]",< 500,** (a value in the range of greater than 90 to 150),< 500,*** (a value in the range of greater than 150 to 200),,
"C/C(=C\c1ccc2c(c1)N(S(=O)(=O)c1cccc(C(F)(F)F)c1)C[C@H](CCC(=O)N1CCC[C@H]1C(=O)O)O2)c1c(F)cccc1Cl [Example 129J, (3-((S)-6-((E)-2-(2-chloro-6-fluorophenyl)prop-1-en-1-yl)-4-((3-(trifluoromethyl)phenyl)sulfonyl)-3,4-dihydro-2H-benzo[b][1,4]oxazin-2-yl)propanoyl)-L-proline]",500 to 5000,*** (a value in the range of greater than 150 to 200),< 500,**** (a value greater than 200),,
"C/C(=C\c1ccc2c(c1)N(S(=O)(=O)c1cc(C(F)(F)F)cnc1OCCO)C[C@H](CCC(=O)N1CCC(C(=O)O)CC1)O2)c1c(F)cccc1Cl [Example 129K, (S,E)-1-(3-(6-(2-(2-chloro-6-fluorophenyl)-prop-1-en-1-yl)-4-((2-(2-hydroxyethoxy)-5-(trifluoromethyl)pyridin-3-yl)sulfonyl)-3,4-dihydro-2H-benzo[b][1,4]oxazin-2-yl)propanoyl)piperidine-4-carboxylic acid]",500 to 5000,** (a value in the range of greater than 90 to 150),< 500,*** (a value in the range of greater than 150 to 200),,
"CCOc1ncc(C(F)(F)F)cc1S(=O)(=O)N1C[C@H](CCC(=O)N2CCC(C(=O)O)CC2)Oc2ccc(/C=C(\C)c3c(F)cccc3Cl)cc21 [Example 129L, (S,E)-1-(3-(6-(2-(2-chloro-6-fluorophenyl)-prop-1-en-1-yl)-4-((2-ethoxy-5-(trifluoro-methyl)pyridin-3-yl)sulfonyl)-3,4-dihydro-2H-benzo[b][1,4]oxazin-2-yl)propanoyl)-piperidine-4-carboxylic acid]",< 500,* (a value in the range of 30 to 90),< 500,*** (a value in the range of greater than 150 to 200),,
"C/C(=C\c1ccc2c(c1)N(S(=O)(=O)c1cc(C(F)(F)F)ccc1OCCO)C[C@H](CCC(=O)N1CCC(C(=O)O)CC1)O2)c1c(F)cccc1Cl [Example 129M, (S,E)-1-(3-(6-(2-(2-chloro-6-fluorophenyl)-prop-1-en-1-yl)-4-((2-(2-hydroxyethoxy)-5-(trifluoromethyl)phenyl)sulfonyl)-3,4-dihydro-2H-benzo[b][1,4]oxazin-2-yl)propanoyl)piperidine-4-carboxylic acid]",500 to 5000,** (a value in the range of greater than 90 to 150),< 500,*** (a value in the range of greater than 150 to 200),,
"C/C(=C\c1ccc2c(c1)N(S(=O)(=O)c1cccc(C(F)(F)F)c1)C[C@H](CCC(=O)N1CCC(C)(C(=O)O)CC1)O2)c1c(F)cccc1Cl [Example 129N, (S,E)-1-(3-(6-(2-(2-chloro-6-fluorophenyl)-prop-1-en-1-yl)-4-((3-(trifluoromethyl)phenyl)sulfonyl)-3,4-dihydro-2H-benzo[b][1,4]oxazin-2-yl)propanoyl)-4-methylpiperidine-4-carboxylic acid]",< 500,** (a value in the range of greater than 90 to 150),< 500,*** (a value in the range of greater than 150 to 200),,
"O=C(O)C1CCN(C(=O)CC[C@H]2CN(S(=O)(=O)c3cccc(C(F)(F)F)c3)c3cc(/C=C/c4c(F)cccc4Cl)ccc3O2)CC1 [Example 129O, (S,E)-1-(3-(6-(2-chloro-6-fluorostyryl)-4-((3-(trifluoromethyl)phenyl)sulfonyl)-3,4-dihydro-2H-benzo[b][1,4]oxazin-2-yl)propanoyl)piperidine-4-carboxylic acid]",< 500,** (a value in the range of greater than 90 to 150),< 500,*** (a value in the range of greater than 150 to 200),,
"C/C(=C\c1ccc2c(c1)N(S(=O)(=O)c1cccc(C(F)(F)F)c1)C[C@H](CCC(=O)N(C)CCC(=O)O)O2)c1c(F)cccc1Cl [Example 129Q, (S,E)-3-(3-(6-(2-(2-chloro-6-fluorophenyl)prop-1-en-1-yl)-4-((3-(trifluoromethyl)-phenyl)sulfonyl)-3,4-dihydro-2H-benzo[b][1,4]-oxazin-2-yl)-N-methyl-propanamido)-propanoic acid]",,,,,< 500,< 500
"O=S(=O)(c1cccc(C(F)(F)F)c1)N1C[C@H](CO)Oc2ccc(Oc3ccccc3)cc21 [Example 130, (R)-(6-Phenoxy-4-((3-(trifluoromethyl)phenyl)sulfonyl)-3,4-dihydro-2H-benzo[b][1,4]oxazin-2-yl)methanol]",500 to 5000,** (a value in the range of greater than 90 to 150),< 500,*** (a value in the range of greater than 150 to 200),,
"O=S(=O)(c1cccc(C(F)(F)F)c1)N1C[C@H](CO)Oc2ccc(Oc3ccccc3Cl)cc21 [Example 131, (R)-(6-(2-Chlorophenoxy)-4-((3-(trifluoromethyl)phenyl)sulfonyl)-3,4-dihydro-2H-benzo[b][1,4]oxazin-2-yl)methanol]",< 500,** (a value in the range of greater than 90 to 150),< 500,*** (a value in the range of greater than 150 to 200),,
"COc1cc(S(=O)(=O)N2C[C@H](CNC(=O)CCC(=O)O)Oc3ccc(/C=C(\C)c4c(F)cccc4Cl)cc32)ccc1F [Example 132, (S,E)-4-(((6-(2-(2-Chloro-6-fluorophenyl)prop-1-en-1-yl)-4-((4-fluoro-3-methoxyphenyl)sulfonyl)-3,4-dihydro-2H-benzo[b][1,4]oxazin-2-yl)methyl)amino)-4-oxobutanoic acid]",500 to 5000,*** (a value in the range of greater than 150 to 200),< 500,**** (a value greater than 200),,
